“Also recorded” adds a separate entry of the source.
Columns and labels:
[1] = tested on: LNCaP; test: Proliferation / IC50 by trypan blue cell counts, LNCaP; format: cell-based, human; conditions: for effect on cell growth: 8 and 12 days; for IC50: Homo sapiens
Description: (§1) A transition state analog inhibitor of MTAP, Methylthio-DaDMe-Immucillin-A (MTDIA) was previously described and shown to be effective following a 6 or 12 day treatment at ˜10 and 100 nM MTDIA when 20 uM MTA was added to the media in both lung adenocarcinoma cell lines and head and neck squamous carcinoma cell lines, respectively [Basu I, et al. J Biol Chem. 2007; 282:21477-21486; Basu I, et al. J Biol Chem. 2011; 286:4902-491]. 32]. We synthesized MTDIA and the analytical data on the synthesized compound are shown in FIGS. 8A and 8B with the scheme used for synthesis shown in FIG. 6. […] In all three cell lines, the proliferation curves after 12 days of treatment show an IC50 of MTDIA>1 mM in the absence of MTA (FIG. 5B), but in the 10-100 nM range with the addition of 10 or 20 μM MTA. […] Nanomolar range IC50 values are highlighted.
(§2) IC50—The MTAP inhibitor (3R,4S)-1-[(9-Deaza-adenin-9-yl)methyl]-3-hydroxy-4-(methylthiomethyl)-pyrrolidine, or MT-DADMe-Immucillin-A (MTDIA) was synthesized following the synthesis scheme shown in FIG. 6 and based on a known approach. Cells were seeded at 125,000 cells/well (PC-3, DU145, LNCaP) in triplicate in 2 mLs of RPMI medium supplemented with 10% fetal bovine serum, and 1% penicillin streptomycin. After 24 hours the MTDIA and/or MTA was added at the indicated concentrations. Both medium and drug were refreshed every 48 hours. Every 96 hours the cells were trypsinized, ˜2% of cells were removed and counted by trypan blue exclusion and the rest were replated into a larger vessel.

[2] = tested on: PC3; test: Proliferation / IC50 by trypan blue cell counts, PC3; format: cell-based, human; conditions: for IC50: Homo sapiens; for effect on cell growth: 8 and 12 days
Description: as §1, §2

[3] = tested on: FaDu cells; test: IC50 of MTDIA for FaDu cells; format: cell-based; conditions: Homo sapiens, 144 h, 6 day treatment, 20 uM MTA
[4] = tested on: LNCaP xenograft; test: LNCaP xenograft growth in nude mice, MTDIA in the drinking water; format: in vivo
Description: Human cell line xenografts with pharmacological treatment—1×10^6 wild type LNCaP cells were subcutaneously injected onto the flank of pelleted nude mice. At time of injection animals were randomly assigned to one of the following three groups; control, 9 or 21 mg/kg MTDIA in the drinking water with 20 mice in each group. Tumor measurements were assessed and recorded twice a week. Animals were sacrificed once tumors reached 2 cm3 or at the end point of the experiment (91 days).

[5] = tested on: MTAP; test: Western blot of MTAP protein expression in FaDu; format: cell-based, human; conditions: 4 day IC25 and IC50 of MTDIA, presence or absence of MTA
Description: (§3) FIG. 9. (A) Proliferation curves for LNCaP, DU145 and PC3 treated with MTDIA in the absence or presence of 10 or 20 uM MTA, for 4 and (B) 8 days. […] (C) Western blot analysis of FaDu, LNCaP, and DU145 cells after indicated treatments of MTA (0, 10, or 20 uM) or the respective 4 day IC25 and IC50 dose of MTDIA for each cell line plus or minus MTA immunoblotted with antibodies against MTAP, SMS, and SRM, with B-actin as a loading control. Western blot images are representative of biological triplicates.
(§4) Western Blotting—Whole cell extracts were prepared in RIPA buffer (150 mM NaCl, 1.0% NP-40, 0.5% deoxycholate, 0.1% SDS, 50 mM Tris-HCl pH 8.0, 5 mM EDTA and 0.5 mM PMSF) supplemented with 1× proteinase inhibitor. Protein concentrations were determined by Bradford Assay (Thermo Scientific, Cat #1856209). […] MTAP for Westerns was purchased from Proteintech™ (Cat #11475-1-AP. SRM and SMS were purchased from Abcam® (Cat #ab111884 and ab156879). B-actin antibody for Westerns was purchased from Sigma-Aldrich (Cat #A5441) and GAPDH was from Santa Cruz Biotecnology Inc. (Cat #sc-25778). Films were scanned using the Biorad ChemiDoc XRS, and band intensities were calculated using Image Lab™. Intensity values were normalized to B-actin loading control band intensities and made relative to control treatment conditions.

[6] = tested on: MTAP; test: Western blot of MTAP protein expression in LNCaP; format: cell-based, human; conditions: 4 day IC25 and IC50 of MTDIA, presence or absence of MTA
Description: as §3, §4

[7] = tested on: MTAP; test: Western blot of MTAP protein expression in DU145; format: cell-based, human; conditions: DU145, 4 day IC25 and IC50 of MTDIA, presence or absence of MTA
Description: as §3, §4

[8] = tested on: LNG53 cells; test: Antiproliferative activity of MTDIA in LNCaP cells overexpressing SAT1 in Tet-off system; format: cell-based, human; conditions: (-) Tet conditions, Tet removed 24 hours prior to 96 hr MTDIA
Description: Tet was removed 24 hours prior to 96 hr treatment with MTDIA. […] Cells were pre-treated with BENSpm for 24 hours followed by 96 hr treatment with MTDIA.
We next analyzed whether the metabolic stress in CaP cells caused by high biosynthetic flux to maintain polyamine pools can be enhanced by increasing the activity of SAT1. We tested whether this could cause increased secretion of acetylated polyamines, putting intracellular pools in deficit, which should necessitate more biosynthesis, and should therefore potentiate any benefit of inhibiting the MSP. To conduct this analysis we used LNCaP cells that stably overexpress SAT1 in a Tet-off system (LNG53 cells, described in Kee, K., et al. J Biol Chem 279, 27050-27058 (2004)).

[9] = tested on: head and neck squamous carcinoma cell lines; conditions: 12 day treatment, 20 uM MTA added to the media; cited from earlier work

With `CSC[C@H]1CN(Cc2c[nH]c3c(N)ncnc23)C[C@@H]1O` [MTDIA, (3R,4S)-1-[(9-Deaza-adenin-9-yl)methyl]-3-hydroxy-4-(methylthiomethyl)-pyrrolidine] the “effect on cell growth” value ([1]; 100 nM MTDIA, with 20 μM MTA) was “dramatic effect on cell growth”, the “effect on cell growth” value ([1]; 100 nM MTDIA, without MTA) was “little to no effect” and the effect on growth ([1]; 100 nM MTDIA, 4 days, with or without 20 μM MTA) was “limited effects on growth”. The blocking cell growth ([1]; 6 days, low concentrations of MTDIA) was “no effect at blocking cell growth”, the IC50 ([1]; 96 h, 4 days, 0 μM MTA) was > 1000 µM and the IC50 ([1]; 96 h, 4 days, 10 μM MTA) was > 1000 µM. The IC50 ([1]; 96 h, 4 days, 20 μM MTA) was 200 µM, the IC50 ([1]; 192 h, 8 days, 0 μM MTA) was > 1000 µM and the IC50 ([1]; 192 h, 8 days, 10 μM MTA) was 1 µM. The IC50 ([1]; 192 h, 8 days, 20 μM MTA) was 0.085 µM, the IC50 ([1]; 288 h, 12 days, 0 μM MTA) was > 1000 µM and the IC50 ([1]; 288 h, 12 days, 10 μM MTA) was 0.011 µM. For the same molecule, the IC50 ([1]; 288 h, 12 days, 20 μM MTA) was 0.014 µM, the IC50 ([1]; 288 h, 12 days, with 10 or 20 μM MTA) was 0.01 to 0.1 µM and the IC50 ([2]; PC-3, 96 h, PC3, 4 days, 0 μM MTA) was > 1000 µM. For the same molecule, the IC50 ([2]; PC-3, 96 h, PC3, 4 days, 10 μM MTA) was > 1000 µM, the IC50 ([2]; PC-3, 96 h, PC3, 4 days, 20 μM MTA) was 300 µM and the IC50 ([2]; PC-3, 192 h, PC3, 8 days, 0 μM MTA) was > 1000 µM. The IC50 ([2]; PC-3, 192 h, PC3, 8 days, 10 μM MTA) was 100 µM, the IC50 ([2]; PC-3, 192 h, PC3, 8 days, 20 μM MTA) was 0.09 µM and the IC50 ([2]; PC-3, 288 h, PC3, 12 days, 0 μM MTA) was > 1000 µM. The IC50 ([2]; PC-3, 288 h, PC3, 12 days, 10 μM MTA) was 80 µM, the IC50 ([2]; PC-3, 288 h, PC3, 12 days, 20 μM MTA) was 0.082 µM and the IC50 ([2]; PC-3, 288 h, PC3, 12 days, with 10 or 20 μM MTA) was 0.01 to 0.1 µM. The “effect on cell growth” value ([2]; PC3, 100 nM MTDIA, with 20 μM MTA) was “dramatic effect on cell growth”, the “effect on cell growth” value ([2]; PC3, 100 nM MTDIA, without MTA) was “little to no effect” and the effect on growth ([2]; PC3, 100 nM MTDIA, 4 days, with or without 20 μM MTA) was “limited effects on growth”. For the same molecule, the blocking cell growth ([2]; PC3, 6 days, low concentrations of MTDIA) was “no effect at blocking cell growth”, the IC50 [3] was ~0.05 µM and the xenograft growth ([4]; 21 mg/kg MTDIA daily in the drinking water, vs untreated control and 9 mg/kg dose) was “significant (p<0.001) block in xenograft growth; also recorded: dramatically blocked LNCaP xenograft growth”. The “xenograft growth after drug removal” value ([4]; 21 mg/kg group, drug removed at day 61, carried out to day 91) was “significant block in xenograft growth was maintained”, the MTAP expression [5] was “downregulates MTAP” and the MTAP expression [6] was “upregulate expression of MTAP”. The MTAP expression [7] was “upregulate expression of MTAP”, the “sensitivity to MTDIA when SAT1 is overexpressed” value [8] was “much more sensitive” and the effective concentration [9] was ~100 nM.

Source: patent US11045473B2, “Compositions and methods for therapy of prostate cancer using drug combinations to target polyamine biosynthesis and related pathways” (Health Research, Inc., priority 2015, dated 2021)
